# Measured values taken from patent publication EP0626016B1, “[…] […]” (BRITISH TECHNOLOGY GROUP LIMITED, priority 1992, dated 1993).
# Target: T1, HRP Type VIA (Armoracia rusticana, UniProt P00433)
# T1 sequence (P00433 31-338): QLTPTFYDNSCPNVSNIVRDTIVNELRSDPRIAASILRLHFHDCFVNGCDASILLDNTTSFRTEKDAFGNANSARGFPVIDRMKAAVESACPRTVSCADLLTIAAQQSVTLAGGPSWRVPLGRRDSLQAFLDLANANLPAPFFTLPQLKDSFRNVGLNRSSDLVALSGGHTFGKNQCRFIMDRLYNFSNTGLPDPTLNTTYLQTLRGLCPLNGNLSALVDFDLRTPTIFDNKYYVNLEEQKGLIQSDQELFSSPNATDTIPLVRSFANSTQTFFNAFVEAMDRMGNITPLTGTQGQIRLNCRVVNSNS
# Assay: Effect of PBBA amount on the luminol or isoluminol-H2O2-HRP chemiluminescent reaction (Example 1, part 1)
# Type: biochemical, horseradish
# Conditions: for Signal (no HRP) / Signal (with HRP): after 5 minutes
# Experimental: PBBA was added in various concentrations (range 0.05µg to 0.5µg) to a luminol-H2O2 reaction in the presence and absence of HRP. […] These two solutions were combined and protected from light. The luminol-hydrogen peroxide reagent (100µl of a 1:10 dilution) was added to a cuvette together with either 10µl of HRP Type VI A (HRP, Sigma Chemical Co., 1:50,000 dilution) or as a control 10µl of Tris Buffer (0.1mol/l, pH 8.6), and various amounts of PBBA (Aldrich Chemical Co.), range 0.05µg-0.5µg in 0.1mol/l Tris, pH 8.6). The reagents were mixed and the light emission recorded after 5 minutes on a Berthold Biolumat LB9500C.
# This experiment was repeated, replacing the luminol with isoluminol. […]
smiles,measurement,setting,value
"OB(O)c1ccc(Br)cc1 [PBBA, para-bromophenylboronic acid]",light emission in the luminol-HRP-peroxidase reaction,"Column (a), result in words",enhances the light emission
same,background level of luminescence,"Column (b), result in words",reduces the background level of luminescence
same,Signal: Background ratio,"Isoluminol, PBBA 0.05 µg",2.1
same,Signal (no HRP),"Isoluminol, PBBA 0.05 µg",7664
same,Signal (with HRP),"Isoluminol, PBBA 0.05 µg","15,772"
same,Signal: Background ratio,"Isoluminol, PBBA 0.1 µg",2.7
same,Signal (no HRP),"Isoluminol, PBBA 0.1 µg",6114
same,Signal (with HRP),"Isoluminol, PBBA 0.1 µg","16,553"
same,Signal: Background ratio,"Isoluminol, PBBA 0.2 µg",11.9
same,Signal (no HRP),"Isoluminol, PBBA 0.2 µg",5736
same,Signal (with HRP),"Isoluminol, PBBA 0.2 µg","68,282"
same,Signal: Background ratio,"Isoluminol, PBBA 0.3 µg",110.4
same,Signal (no HRP),"Isoluminol, PBBA 0.3 µg",5613
same,Signal (with HRP),"Isoluminol, PBBA 0.3 µg","619,880"
same,Signal: Background ratio,"Isoluminol, PBBA 0.4 µg",147.0
same,Signal (no HRP),"Isoluminol, PBBA 0.4 µg",5278
same,Signal (with HRP),"Isoluminol, PBBA 0.4 µg","775,965"
same,Signal: Background ratio,"Luminol, PBBA 0.05 µg",6.1
same,Signal (no HRP),"Luminol, PBBA 0.05 µg","16,556"
same,Signal (with HRP),"Luminol, PBBA 0.05 µg","101,227"
same,Signal: Background ratio,"Luminol, PBBA 0.1 µg",6.7
same,Signal (no HRP),"Luminol, PBBA 0.1 µg","16,065"
same,Signal (with HRP),"Luminol, PBBA 0.1 µg","108,213"
same,Signal: Background ratio,"Luminol, PBBA 0.2 µg",8.1
same,Signal (no HRP),"Luminol, PBBA 0.2 µg","13,890"
same,Signal (with HRP),"Luminol, PBBA 0.2 µg","112,644"
same,Signal: Background ratio,"Luminol, PBBA 0.3 µg",11.2
same,Signal (no HRP),"Luminol, PBBA 0.3 µg","10,899"
same,Signal (with HRP),"Luminol, PBBA 0.3 µg","122,116"
same,Signal: Background ratio,"Luminol, PBBA 0.4 µg",12.5
same,Signal (no HRP),"Luminol, PBBA 0.4 µg","10,706"
same,Signal (with HRP),"Luminol, PBBA 0.4 µg","133,401"
same,Signal: Background ratio,"Luminol, PBBA 0.5 µg",16.9
same,Signal (no HRP),"Luminol, PBBA 0.5 µg","8,963"
same,Signal (with HRP),"Luminol, PBBA 0.5 µg","151,572"
